Laboratory results taken from the supplement of paper PMC10307832.

Legend:
Assay in all cases: relative viability (nuclei count vs DMSO), 5 days (fraction); higher = more cells survive
Seliciclib + Trametinib = compound: CC[C@H](CO)Nc1nc(NCc2ccccc2)c2ncn(C(C)C)c2n1 [Seliciclib] + CC(=O)Nc1cccc(-n2c(=O)n(C3CC3)c(=O)c3c(Nc4ccc(I)cc4F)n(C)c(=O)c(C)c32)c1 [Trametinib] (partner 0.02 µM)
Outline: (§1)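 Lung cancer cell lines, seeded in 1536-well plates, were treated the following day by pin tool with a single drug or with five library-drug doses (not always all listed) in √10 steps on top of a fixed anchor-drug dose. Cells were fixed and nuclei stained in one step after 5 days, and nuclei were counted. Relative viability is the nuclei count for treated wells divided by that for vehicle wells, reported as medians of duplicate plates.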

Seliciclib + OSI-027 = compound: CC[C@H](CO)Nc1nc(NCc2ccccc2)c2ncn(C(C)C)c2n1 [Seliciclib] + COc1cccc2cc(-c3nc([C@H]4CC[C@H](C(=O)O)CC4)n4ncnc(N)c34)[nH]c12 [OSI-027] (partner 0.5 µM)
Outline: as §1

Seliciclib + Lapatinib = compound: CC[C@H](CO)Nc1nc(NCc2ccccc2)c2ncn(C(C)C)c2n1 [Seliciclib] + CS(=O)(=O)CCNCc1ccc(-c2ccc3ncnc(Nc4ccc(OCc5cccc(F)c5)c(Cl)c4)c3c2)o1 [Lapatinib] (partner 2 µM)
Outline: as §1

Seliciclib + Linsitinib = compound: CC[C@H](CO)Nc1nc(NCc2ccccc2)c2ncn(C(C)C)c2n1 [Seliciclib] + C[C@]1(O)C[C@@H](c2nc(-c3ccc4ccc(-c5ccccc5)nc4c3)c3c(N)nccn32)C1 [Linsitinib] (partner 1 µM)
Outline: as §1

Cell Line	relative viability (Seliciclib + Trametinib; first compound 0.08 µM)	relative viability (Seliciclib + Trametinib; first compound 0.253 µM)	relative viability (Seliciclib + Trametinib; first compound 0.8 µM)	relative viability (Seliciclib + Trametinib; first compound 2.53 µM)	relative viability (Seliciclib + Trametinib; first compound 8 µM)	relative viability (Seliciclib + OSI-027; first compound 0.08 µM)	relative viability (Seliciclib + OSI-027; first compound 0.253 µM)	relative viability (Seliciclib + OSI-027; first compound 0.8 µM)	relative viability (Seliciclib + OSI-027; first compound 2.53 µM)	relative viability (Seliciclib + OSI-027; first compound 8 µM)	relative viability (Seliciclib + Lapatinib; first compound 0.08 µM)	relative viability (Seliciclib + Lapatinib; first compound 0.253 µM)	relative viability (Seliciclib + Lapatinib; first compound 0.8 µM)	relative viability (Seliciclib + Lapatinib; first compound 2.53 µM)	relative viability (Seliciclib + Lapatinib; first compound 8 µM)	relative viability (Seliciclib + Linsitinib; first compound 0.08 µM)	relative viability (Seliciclib + Linsitinib; first compound 0.253 µM)	relative viability (Seliciclib + Linsitinib; first compound 0.8 µM)	relative viability (Seliciclib + Linsitinib; first compound 2.53 µM)	relative viability (Seliciclib + Linsitinib; first compound 8 µM)
NCI-H1993	0.649	0.543	0.47	0.508	0.43	0.574	0.529	0.521	0.556	0.518	0.845	0.848	0.838	0.773	0.797	0.746	0.749	0.768	0.724	0.713
NCI-H2009	0.278	0.208	0.264	0.262	0.296	0.704	0.778	0.739	0.407	0.495	0.944	1.04	0.889	0.772	0.721	1.24	1.16	1.09	1.19	1.19
NCI-H2023	0.542	0.457	0.501	0.447	0.264	0.418	0.304	0.396	0.188	0.323	0.932	0.991	0.732	0.406	0.451	0.642	0.574	0.633	0.746	0.572
NCI-H2085	0.509	0.475	0.513	0.41	0.343	0.803	0.679	0.59	0.685	0.577	0.739	0.793	0.667	0.635	0.497	0.808	0.805	0.928	0.856	0.763
NCI-H2087	0.202	0.203	0.217	0.145	0.196	0.617	0.533	0.497	0.273	0.432	1.13	1.14	1.02	0.749	0.965	0.896	0.991	1	0.867	0.862
NCI-H2126	0.581	0.54	0.623	0.525	0.449	0.75	0.715	0.649	0.354	0.515	0.698	0.656	0.737	0.552	0.613	0.718	0.711	0.698	0.721	0.716
NCI-H2228	0.504	0.204	0.498	0.497	0.528	0.594	0.437	0.617	0.473	0.404	1.07	1.35	1.02	1.2	0.847	0.848	0.491	0.612	0.564	0.57
NCI-H2347	0.259	0.323	0.331	0.278	0.279	0.431	0.475	0.452	0.339	0.343	0.867	0.858	0.835	0.974	0.905	1.05	0.995	0.849	1	0.922
